# “Also recorded” adds a separate entry of the source. Where two headings read alike, the source gives them in different places.
# What was measured:
# [1] = test system: B-fibers of rabbit vagus nerve; test: Sucrose-gap recording in the veratrinized region, B-fibers; parameters: species or system New Zealand white rabbit; conditions: 0.5 μm VTD
# Description: Adult male New Zealand white rabbits (3±0.5 kg) were pretreated intramuscularly with a mixture of ketamine (200 mg), xylazine (20 mg) and atropine (0.4 mg) for sedation. Ten minutes after this treatment, the animals were anesthetized with diethyl ether. After cessation of respiration, a longitudinal skin incision was made, and the cervical portion of both vagus nerves was dissected. The vagus nerves were temporarily stored at room temperature (22° C.) in a beaker containing modified HEPES Liley (HL) solution stirred constantly by aeration with a mixture of 95% oxygen and 5% carbon dioxide. […]
# VTD free base (no. V-5754, lot 58F-7828, Sigma, St. Louis, Mo.) was stored in a desiccator below 0° C. and was used to prepare a 2 mM stock solution in dimethyl sulfoxide [DMSO], Fisher Scientific, lot 861316), which also was stored at below 0° C. […] The maximum equivalent content of DMSO is 0.5%, and in three control experiments we detected no change in electrophysiologic behavior with 1% DMSO.
# Nerves were desheathed and mounted in an acrylic sucrose-gap chamber (FIG. 2C). […] In contrast to the extracellular chamber described above, which measured APc in a drug-free segment after they had propagated through a VTD solution, the sucrose gap measured the behavior of the nerve membrane directly exposed to drug, the "veratrinized" nerve. […]
# angiotensin II receptors = conditions: reported by Ball et al.; cited from earlier work
# rabbit vagus nerve = test: Extracellular recording of compound action potentials (APc), vagus nerve as a whole; parameters: species or system New Zealand white rabbit
# Description: (§1) Adult male New Zealand white rabbits (3±0.5 kg) were pretreated intramuscularly with a mixture of ketamine (200 mg), xylazine (20 mg) and atropine (0.4 mg) for sedation. Ten minutes after this treatment, the animals were anesthetized with diethyl ether. After cessation of respiration, a longitudinal skin incision was made, and the cervical portion of both vagus nerves was dissected. The vagus nerves were temporarily stored at room temperature (22° C.) in a beaker containing modified HEPES Liley (HL) solution stirred constantly by aeration with a mixture of 95% oxygen and 5% carbon dioxide.
# (§2) The modified HL solution used for bathing the nerve and subsequent drug perfusion consisted of (in mM): NaCl, 118.0; KCl, 5.0; CaCl2 2H2 0, 2.0; MgCl2 6H2 0, 1.0; α-D(+)-glucose, 11.0; NaHC03, 25.0; and N-2-hydroxy-ethylpiperazine-N-2-ethanesulfonic acid (HEPES) buffer, 5.0 mM. The pH was adjusted to 7.4±0.05 by addition of 1 N NaOH. The perfusion solution was bubbled with a gas mixture of 95% oxygen and 5% carbon dioxide at a vigorous rate just before flowing onto the nerve. The pH was stabilized by the HEPES buffer and maintained at 7.4.
# (§3) VTD free base (no. V-5754, lot 58F-7828, Sigma, St. Louis, Mo.) was stored in a desiccator below 0° C. and was used to prepare a 2 mM stock solution in dimethyl sulfoxide [DMSO], Fisher Scientific, lot 861316), which also was stored at below 0° C. VTD, a steroidal alkaloid (FIG. 2A) that is produced by certain lilies, has a solubility limited to approximately 10^-3 M in aqueous slat solutions [Kupchan and By, "The Veratrum Group," in Alkaloids, Vol. 10, Manske, R.H.F. (ed.), New York, Academic Press (1968), pp. 193-285]. The stock VTD solution was diluted to final concentrations of 0.2-10 μM by the addition of HL. The maximum equivalent content of DMSO is 0.5%, and in three control experiments we detected no change in electrophysiologic behavior with 1% DMSO.
# The nerves were cleaned and desheathed by microdissection before mounting in an airtight chamber (FIG. 2B) [Gissen et al., Anesthesiology 53:467-474 (1980)]. Petroleum jelly (White Petrolatum, Denison Laboratories) seals separated a central, 11-mm length of the nerve from the lateral pools, used for stimulating and recording with electrodes made of platinum wire. The central section of the chamber (volume 0.25 ml) was perfused with HL solution at 0.5 ml.min.^-1. The lateral pools containing the moistened ends of the nerves adsorbed to the electrodes were filled with paraffin oil. […] Thus, measured APc s were conducted in nerve exposed to drug for half of the conduction pathway, and had been conducting through drug-free medium over a distance containing at least two or three nodes of Ranvier (in the fastest-conducting fibers), before reaching the recording electrodes. […]
# [2] = test system: C-fibers of rabbit vagus nerve; test: Extracellular recording of compound action potentials (APc), desheathed vagus nerve, C-fibers; parameters: species or system New Zealand white rabbit; conditions: for inhibition at 0.5 µM: 1 h, mean ± SEM; for inhibition at 0.5 µM / activity at 0.5 µM: 0.5 μM VTD; for activity at 0.5 µM: read-out: Amplitude of single APc elevation relative to amplitude at beginning of VTD exposure
# Description: as §1, §2, §3
# (§4) The nerves were cleaned and desheathed by microdissection before mounting in an airtight chamber (FIG. 2B) [Gissen et al., Anesthesiology 53:467-474 (1980)]. Petroleum jelly (White Petrolatum, Denison Laboratories) seals separated a central, 11-mm length of the nerve from the lateral pools, used for stimulating and recording with electrodes made of platinum wire. The central section of the chamber (volume 0.25 ml) was perfused with HL solution at 0.5 ml.min.^-1. The lateral pools containing the moistened ends of the nerves adsorbed to the electrodes were filled with paraffin oil. The APc s were propagated over 21 mm, from the stimulating to the recording electrodes, with the proximal recording electrodc located 4.5 mm from the edge of the central, drug exposure chamber. Thus, measured APc s were conducted in nerve exposed to drug for half of the conduction pathway, and had been conducting through drug-free medium over a distance containing at least two or three nodes of Ranvier (in the fastest-conducting fibers), before reaching the recording electrodes.
# (§5) The signal from the nerve was amplified 50 times (model AK 475 operational amplifier, Metametrics, Carlisle, Mass.) and passed to the oscilloscope preamplifiers (model 5A 22N, Tektronix). The preparation was not considered acceptable unless the APc signals from the nerve exceeded 1.5 mV for A-fibers, 0.5 mV for B-fibers, and 0.3 mV for C-fibers.
# (§6) Each nerve was exposed to only one VTD concentration, and each concentration was tested in four or five separate nerves, except in tie sheathed nerves, for which only two nerves were used. The temperature was 20°-22° C.
# (§7) The standard protocol used for testing the action of VTD was to record the APc elevations in control HL solution for 30-60 min. before adding VTD; for 60-75 min. during VTD application; and for 60-75 min. after replacement with VTD-free HL. […]
# [3] = test system: B-fibers of rabbit vagus nerve; test: Extracellular recording of compound action potentials (APc), desheathed vagus nerve, B-fibers; parameters: species or system New Zealand white rabbit; conditions: for inhibition at 0.5 µM / activity at 0.5 µM: Oryctolagus cuniculus, 0.5 μM VTD; for inhibition at 0.5 µM: 70 min, 50 Hz, mean ± SEM; for activity at 0.5 µM: read-out: Amplitude of single APc elevation relative to amplitude at beginning of VTD exposure
# Description: as §1, §2, §3, §4, §5, §6, §7
# [4] = test system: C-fibers of rabbit vagus nerve; test: Sucrose-gap recording in the veratrinized region, C-fibers; parameters: species or system New Zealand white rabbit
# Description: as §1, §2, §3
# Nerves were desheathed and mounted in an acrylic sucrose-gap chamber (FIG. 2C). We used a method after that described by Stampfli [Stampfli, R., Experientia 10:508-509 (1954); see also Rando et al., Mol. Pharmacol. 29:467-477 (1986)]. […] In contrast to the extracellular chamber described above, which measured APc in a drug-free segment after they had propagated through a VTD solution, the sucrose gap measured the behavior of the nerve membrane directly exposed to drug, the "veratrinized" nerve.
# APc and the CRP were recorded with the same amplifier used for extracellular recording (see above), but passed both to the DC-coupled input of the storage oscilloscope (for APc) and to a strip-chart recorder (for CRP) (model 8376-20, Cole-Palmer). […]
smiles,measurement,setting,value
"COc1ccc(C(=O)OC2CCC3(C)C4CCC5C6(O)CC(O)C7(O)C(CN8CC(C)CCC8C7(C)O)C6(O)CC53OC24O)cc1OC (stereo not shown) [VTD, veratridine]",B-fiber elevation after addition of VTD,[1],unchanged
same,Inhibition of angiotensin II receptors,angiotensin II receptors,selective inhibitor of angiotensin II receptors
same,Fiber preference of impulse inhibition,"rabbit vagus nerve; VTD alone, use-dependent",highly preferential for C-fibers
same,Time to recover from VTD-induced use-dependent effects,rabbit vagus nerve; after termination of rapid stimulation,tens of seconds
same,Effect of VTD added to a nerve during recovery from bupivacaine,rabbit vagus nerve; residual bupivacaine block,potentiated rather than antagonized the residual block
same,Effect on impulses conducted in response to a single stimulus,"rabbit vagus nerve; single stimuli, 0.5 μM",only a small effect; also recorded: unaffected
same,"Use-dependent reduction of APc by VTD, C-fibers","[2]; 0-2.0 μM (FIG. 7C), at relatively low frequencies",diminished most; also recorded: greatest for the C-fiber component
same,Use-dependent inhibition and slowing of C-fiber APc,"[2]; 2 μM VTD, 5 Hz, second through tenth APc, 15-20 min. exposure",slowed conduction and reduced amplitude
same,Single-stimulus APc after VTD compared with no-VTD controls,"[2]; C-fibers, 0.5 μM, 60 min. in VTD, P<0.005",significant enhancement
same,Longer latency of the second wave vs the first wave,"[2]; C-fibers, 2 μM VTD, 5 Hz (FIG. 6B)",about 20%
same,Reversal of use-dependent depression by washing,"[2]; C-fibers, VTD-free HL wash",partial reversal
same,Recovery time of APc after stimulation ceased,"[2]; C-fibers, sometimes as long as, depending on VTD concentration",1 to 2 min
same,inhibition at 0.5 µM,"[2]; Oryctolagus cuniculus, C-fibers, 10 Hz, after 60 min. in VTD, P < 0.001 vs control, read-out: Percent inhibition of the tenth APc in a train compared to the first, VTD",54.6 ± 3.8%
same,inhibition at 0.5 µM,"[2]; Oryctolagus cuniculus, C-fibers, 10 Hz, after 60 min. wash, read-out: Percent inhibition of the tenth APc in a train compared to the first, HL (Wash)",34.6 ± 3.8%
same,activity at 0.5 µM,"[2]; Oryctolagus cuniculus, C-fibers, during VTD exposure",111 ± 5%
same,activity at 0.5 µM,"[2]; Oryctolagus cuniculus, C-fibers, wash period",133 ± 15%
same,inhibition at 0.2 µM,"[2]; Oryctolagus cuniculus, 0.2 μM VTD, 10 Hz, after about 1 h of wash-out, read-out: C-fiber use-dependent inhibition after VTD wash-out",22%
same,Reversal of use-dependent effects on B-fibers by washing,[3]; 75 min. of washing with drug-free HL,not abolished completely
same,Single-stimulus APc after VTD compared with no-VTD controls,"[3]; B-fibers, 0.5 μM, 60 min. in VTD, P>0.05",no significant difference
same,Reversal of use-dependent depression by washing,"[3]; B-fibers, VTD-free HL wash",did not reverse
same,inhibition at 0.5 µM,"[3]; B-fibers, after 70 min. in VTD, P < 0.001 vs control, read-out: Percent inhibition of the tenth APc in a train compared to the first, VTD",55 ± 2.8%
same,inhibition at 0.5 µM,"[3]; B-fibers, after 70 min. wash, read-out: Percent inhibition of the tenth APc in a train compared to the first, HL (Wash)",52.6 ± 3.7%
same,activity at 0.5 µM,"[3]; B-fibers, during VTD exposure",105 ± 23%
same,activity at 0.5 µM,"[3]; B-fibers, wash period",108 ± 31%
same,C-fiber elevation after addition of VTD,"[4]; 0.5 μm VTD, single stimulus",unaffected
same,Time for development of VTD-induced depolarization (VID) after stimulation,"[4]; 0.5 μm VTD, within about 100 ms",≤ 100 ms
same,Decay halftime of VTD-induced depolarization (VID),[4]; after 1 hr in 2.0 μm VTD,3 to 4 s
same,Primary C-fiber elevations during cumulative VID,[4]; repetitive stimulation,much smaller than were the elevations induced by single stimuli; also recorded: selectively reduced
